Data reported in patent US8722923B2, “Conjugates for treating neurodegenerative diseases and disorders” (Ramot at Tel-Aviv University Ltd., priority 2008, dated 2014).

Experiments:
[1] = system: MPTP-Induced Parkinson's Disease Model in Mice; assay: Example 2: MPTP acute toxicity model, tyrosine hydroxylase immunoreactive cells in the SNpc; type: in vivo, mice strain C57/bl; settings: day 7, MPTP 4 x 20 mg/kg IP day 0, S.C once daily days 0-7, 40 mg/kg L-DOPA or equimolar
Protocol: Mice were administered 4 injections IP of MPTP (each injection contained 20 mg/kg, 5 ml/kg) or saline alone (control) at 2 hours intervals on day 0. Mice were then administered subcutaneously test solutions (TI) (either saline, L-DOPA or BL-1023) once daily throughout the 8 successive treatment days (days 0-7). On day 7, the mice were sacrificed and their brains were removed for immunohistochemistry analysis of the number of tyrosine hyroxylase immunostained cells at the level of the Substantia Nigra (SNpc).
Young adult (7-8 weeks old) male mice strain C57/bl were acclimated for one week prior to MPTP initiation. During acclimation and throughout the entire study duration, animals were housed within a limited access rodent facility and kept in groups of maximum 5 mice in polypropylene cages (23×17×14 cm), fitted with solid bottoms and filled with wood shavings as bedding material. Animals were provided ad libitum a commercial rodent diet and free access to drinking water, supplied to each cage via polyethylene bottles with stainless steel sipper tubes. […]
Immunohistochemistry staining was performed using Rabbit anti tyrosin hydroxylase (1:100). […] Quantitative analysis was effected by counting of immunoreactive cells at the widest dimension of the SNpc lateral to the roots of the third cranial nerve separating medial and lateral SNpc at the level of interpreduncular nucleus.

[2] = system: MPTP acute model mice; assay: Experiment 1: open field test, MPTP acute model (AN-490); type: in vivo, C57/BL/6J mice
Protocol: The MPTP neurotoxin was administered on day 0, with 4 IP injections (each injection contained 20 mg/kg, 5 ml/kg) in saline. The various treatments or saline were administered on days 0, 1, 2, 3, 6, 7, 13 and 16. Each group of mice (n=6) was subjected, on days 3, 6, 8 and 16, to the open field test, and the following parameters were scored: the distance moved (FIGS. 2A and 2B), velocity (FIGS. 2C and 2D), time spent immobile (FIGS. 2E and 2F) and time spent in a high level of mobility (FIGS. 2G and 2H; strong mobility) during a period of 20 minutes. FIGS. 2A, 2C, 2E and 2G present the data obtained for the control mice, mice treated with L-DOPA and mice treated with AN-490. FIGS. 2B, 2D, 2F and 2H present the data obtained for control mice or mice treated with MPTP, MPTP with L-DOPA and MPTP with AN-490.
(§1) Acute model: On day 1, C57/BL mice received 4× […] injections of 20 mg/kg MPTP-HCl (Sigma), dissolved in saline solution, at 2 hours intervals.
The open field test measures behavioral responses, locomotor activity, hyperactivity, and exploratory behaviors. Open field test is also used as a measure of anxiety. Mice tend to avoid brightly illuminated, novel, open spaces, so the open field environment acts as an anxiogenic stimulus and allows for measurement of anxiety-induced locomotor activity and exploratory behaviors. The apparatus for the open field test is a square (0.5×0.5 meter) made of white melamine. All activities were recorded by a video camera mounted above the open field and scored in real-time by a motion-recognition software package (Noldus, Holland) that detects and analyzes the movements of the animals. The video image of the open field arena was partitioned into equal-size squares zone. Total distance, average speed, rearing/elongation behavior, and time spent in various parts of the field (e.g. the border areas vs. mid-area) were measured. Testing was carried out in a temperature, noise and light controlled room.

[3] = system: MPTP sub-acute model mice; assay: Experiment 2: observed vitality signs (level of motion, fur appearance), MPTP sub-acute model; type: in vivo, C57/BL/6J mice; settings: MPTP sub-acute model, per os treatment; for Fur, observer 1: key: Split fur +; Shiny fur +++; for Fur, observer 2: key: Split fur +; Shiny fur +++; for Fur, observer 3: key: Split fur +; Shiny fur +++; for Fur, observer 4: key: Split fur +; Shiny fur +++; for Vitality, observer 3: key: slow motions +; normal motion +++; for Vitality, observer 4: key: slow motions +; normal motion +++
Source text: FIG. […] 6 hereinabove. Six independent observers estimated the level of mice vitality by the level of motion of the mice (light purple, marked vitality) and fur appearance (dark purple). The results are an average of the observers' reports.

[4] = system: MPTP acute model mice; assay: Experiment 3: RotaRod test, MPTP acute model (BL-1023*); type: in vivo, C57/BL/6J mice; settings: day 12, after initiation of treatment, per os
Protocol: Mice were administered the following treatments: saline (Control), MPTP+saline (MPTP), MPTP+L-DOPA 30 mg/kg (MPTP+Dopa), MPTP+L-DOPA 30 mg/kg+GABA 18.4 mg/kg (MPTP+G+D) MPTP+BL1023* 48.4 mg/kg (MPTP+1023 30) and MPTP+BL-1023* 24.2 mg/kg (MPTP+BL1023 15). The MPTP neurotoxin was administered on day 0, with 4 IP injections (each injection contained 20 mg/kg, 5 ml/kg) in saline. The various treatments or saline were administered on day 7, 9, 11 and 13 (total of 4 treatments). Each group of mice (n=10) was subjected to the RotaRod test, on day 6 (before initiation of treatment, FIG. 9A) and day 12 (after initiation of treatment, FIG. 9B) and the observed average duration on Rod, tested three times, are presented.
as §1
RotoRod Test: The test measures and records motor coordination of rats and mice using the natural fear of falling motivation. RotoRod (San Diego Industries, San Diego, Calif., USA) was set on 16 rpm speed and accelerated to maximum speed of 25 rpm. The time until the mouse fall was measured up to maximum 4 minutes. The measurements were performed three times for each mouse and the average was calculated. […] When the animal falls from the rotating rod, the photo beams were broken and the Rota-Rod recorded the animal's latency to fall. […]

[5] = 0.16 ionic strength and 25° C.; cited from earlier work

N[C@@H](Cc1ccc(O)c(O)c1)C(=O)O [L-DOPA, 3,4-dihydroxy-L-phenylalanine]
Number of TH Cells [1]: 39
motility / motor activity in open field ([2]; MPTP treated mice, L-DOPA 25 mg/kg or AN-490 67.5 mg/kg by oral gavage, days 3, 6, 8, 16): lower the motility
motility in open field (distance moved, velocity, strong mobility, immobility) ([2]; mice not treated with MPTP, L-DOPA 25 mg/kg per os, vs naïve mice or equimolar AN-490): tendency toward increase in motility
Fur, observer 1 [3]: +++
Fur, observer 2 [3]: +++
Fur, observer 3 [3]: +++
Fur, observer 4 [3]: +++
Vitality, observer 3 [3]: +++
Vitality, observer 4 [3]: +++
latency in the rotarod test shortened by MPTP [4]: not attenuated
pKNH3 [5]: 9.42
pKOH [5]: 8.97
